Results from patent publication US20040121992A1, “Therapeutic methods of reducing cholesterol accumulation” (priority 2002, published 2004).
Values joined by “and” are separate entries in the source; they are usually repeats but may differ in a detail not shown here. Equal entries are not always repeated. Where two headings read alike, the source gives them in different places.

What was measured:
CHO cells = format: cell-based; details: for % new chol / ug cholest. / ug new chl / 372/368: 5 uM, CHO cells; for % new chol / ug cholest. / ug new chl: duplicate samples; for 372/368: ion ratio m/z 372 to m/z 368, duplicate samples
SLOS fibroblasts = format: cell-based, human
Protocol: The effect of 27-hydroxy-7-dehydrocholesterol on cholesterol synthesis was studied in CHO cells (Table 2). SLOS fibroblasts were plated at a density of 375,000 cells in a T-25 flask in DMEM containing 10% fetal bovine serum. After 24 hours, the media was changed to McCoy's 5A containing 7.5% lipoprotein deficient serum and 25% D2O. To these cultures, either 5 μM of 27-hydroxycholesterol or 27-hydroxy-7-dehydrocholesterol in hydroxypropyl-β-cyclodextrin were added. Control cultures had only the vehicle added. Media was changed on day 3 and cell pellets were obtained on day 5. Newly synthesized 7-DHC was determined by a combination of GLC-FID and GLC-MS. At a medium concentration of 5 μM 27-hydroxy-7-dehydrocholesterol, the synthesis rate of 7-DHC fell to less than 2 ng/day/T-25 flask in each cell line. […] In untreated cultures, the rates of 7-DHC synthesis were 326±8 and 1414±88 ng/day/T-25 flask (mean±SD) for A2SLO and 4350SLO respectively.

Structure (SMILES)	% new chol (CHO cells)	ug cholest. (CHO cells)	ug new chl (CHO cells)	372/368 (CHO cells)	inhibition of cholesterol synthesis compared with an equimolar amount of 27-hydroxycholesterol (CHO cells; 5 μM, cell culture)	inhibition of cholesterol synthesis (in words) (CHO cells; cell culture assays)	metabolism to 27-hydroxycholesterol in SLOS fibroblasts (SLOS fibroblasts)	synthesis rate of 7-DHC (SLOS fibroblasts; medium concentration 5 μM, each cell line (A2SLO and 4350SLO), untreated 326±8 and 1414±88)	% new chol (CHO cells; listed as 27OH)	ug cholest. (CHO cells; listed as 27OH)	ug new chl (CHO cells; listed as 27OH)	372/368 (CHO cells; listed as 27OH)
CC(CO)CCC[C@@H](C)[C@H]1CC[C@H]2C3=CC=C4C[C@@H](O)CC[C@]4(C)[C@H]3CC[C@]12C (stereo partly drawn) [27-hydroxy-7-dehydrocholesterol, cholesta-5,7-diene-3β-27 diol]	2.6% and 2.9%	29.5 µg and 32.6 µg	0.78 µg and 0.95 µg	0.0079 and 0.0087	slightly greater	potent inhibitor of cholesterol synthesis	did not metabolize	less than 2 ng/day/T-25 flask	–	–	–	–
CC(CO)CCC[C@@H](C)[C@H]1CC[C@H]2[C@@H]3CC=C4C[C@@H](O)CC[C@]4(C)[C@H]3CC[C@]12C (stereo partly drawn) [27-hydroxycholesterol, cholest-5-ene-3 β, 27-diol, reference compound]	–	–	–	–	–	–	–	–	4.4% and 3.6%	29.9 µg and 33.1 µg	1.3 µg and 1.2 µg	0.013 and 0.011
